{
  "source": "patent US6384075B1",
  "about": "“Bicyclic amino derivatives and PGD2, antagonist containing them” (Shionogi & Co., Ltd., priority 1995, dated 2002)",
  "key": {"PGD2 receptor": {"molecular_target": "T1, PGD2 receptor (Homo sapiens, UniProt Q13258)", "T1 construct": "Preparation of Human Platelet Membrane Fraction; from tissue; host or cells: human platelets (membrane fraction) from blood of healthy volunteers", "T1 sequence (Q13258 1-359)": "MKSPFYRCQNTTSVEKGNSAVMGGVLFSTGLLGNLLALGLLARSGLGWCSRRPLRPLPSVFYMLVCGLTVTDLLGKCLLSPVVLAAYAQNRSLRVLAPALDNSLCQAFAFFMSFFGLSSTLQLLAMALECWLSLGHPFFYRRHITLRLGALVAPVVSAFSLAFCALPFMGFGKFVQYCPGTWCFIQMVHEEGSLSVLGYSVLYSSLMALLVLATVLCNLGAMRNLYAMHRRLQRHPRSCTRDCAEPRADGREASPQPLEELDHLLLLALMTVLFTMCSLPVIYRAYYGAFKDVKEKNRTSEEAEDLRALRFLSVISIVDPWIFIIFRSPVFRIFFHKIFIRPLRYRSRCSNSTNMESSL", "test": "Binding to PGD2 receptor ([3H]PGD2, human platelet membrane fraction)", "details": "5 nM [3H]PGD2, 4° C., 90 min, read-out: Activity (binding-inhibitory activity, concentration required for 50% inhibition, IC50)", "description": "(1) Preparation of Human Platelet Membrane Fraction\nBlood sample was obtained using a plastic syringe containing 3.8% sodium citrate from a venous of healthy volunteers (adult male and female), put into a plastic test tube and mixed gently by inversion. The sample was then centrifuged at 1800 rpm, 10 min at room temperature, and supernatant containing PRP (platelet rich plasma) was collected. The PRP was re-centrifuged at 2300 rpm, 22 min at room temperature to obtain platelets. The platelets were homogenized using a homogenizer (Ultra-Turrax) followed by centrifugation 3 times at 20,000 rpm, 10 min at 4° C. to obtain platelet membrane fraction. After protein determination, the membrane fraction was adjusted to 2 mg/ml and preserved in a refrigerator at […] until use.\n(2) Binding to PGD2 Receptor\nTo a binding-reaction solution (50 mM Tris/HCl, pH 7.4, 5 mM MgCl2) (0.2 ml) were added human platelet membrane fraction (0.1 mg) and 5 nM [3H]PGD2 (115 Ci/mmol), and reacted at 4° C. for 90 min. After the reaction completed, the reaction mixture was filtered through the glass fiber filter paper, washed several times with cooled saline, and measured radioactivity retained on the filter paper. The specific binding was calculated by subtracting the non-specific binding (the binding in the presence of 10 μM PGD2) from the total binding. […]"}, "[1]": {"system": "nasal cavity resistance (nasal occlusion model)", "test": "Nasal occlusion model: nasal cavity resistance after antigen (OVA) exposure in sensitized guinea pig", "type": "in vivo", "details": "1 mg/kg (i.v.), 10 min before antigen exposure", "description": "Experiment Using Nasal Occlusion Model\nThe method used for measuring the nasal cavity resistance and evaluating the anti-nasal occlusion using a guinea pig are described below.\nA 1% ovalbumin (OVA) solution was treated with ultrasonic nebulizer to obtain an aerosol. Hartley male guinea pig was sensitized by inhaling twice the aerosol for 10 min at one-week interval. Seven-day after the sensitization, the guinea pig was exposed to an antigen to initiate the reaction. Then the trachea was incised under the anesthesia with pentobarbital (30 mg/kg, i.p.) and cannulas were inserted into the trachea at the pulmonary and nasal cavity sides. The canal inserted at the pulmonary side was connected with an artificial respirator that provides 4 ml air 60 times/min. After arresting the spontaneous respiration of a guinea pig with Garamin (2 mg/kg, i.v.), air was supplied to the snout side with an artificial respirator at the frequency of 70 times/min, and the flow rate of 4 ml air/time, and the atmospheric pressure required for the aeration was measured by the use of a transducer fitted at the branch. The measurement was used as a parameter of the nasal cavity resistance. The exposure of an antigen was carried out by generating aerosol of 3% OVA solution for 3 min between the respirator and nasal cavity cannula. The test drug was injected intravenously 10 min before the antigen exposure. […]"}},
  "data": [
    {"smiles": "O=C(O)CCC/C=C\\C[C@@H]1[C@H]2CC[C@H](C2)[C@H]1NS(=O)(=O)c1ccc2oc3ccccc3c2c1", "note": "[1a-2, (Z)-7-[(1S,2R,3R,4R)-3-(2-dibezofuryl)sulfonylaminobicyclo[2.2.1]hept-2-yl]-5-heptenoic acid]", "values": [
      {"measurement": "IC50", "setting": "PGD2 receptor", "value": 130, "unit": "nM"},
      {"measurement": "Inhibition Rate (%) of nasal cavity resistance (AUC 0-30 min vs vehicle)", "setting": "[1]", "value": 82, "unit": "%"}
    ]}
  ]
}
